Experimental data taken from patent US7091311B2, “Peptides and compounds that bind to a receptor” (SmithKline Beecham Corporation, priority 1996, dated 2006).
“And” between values parts separate entries of the source, which are not always exact repeats. Equal values may be shown once.

Legend:
[1] = test system: marrow cells; experiment: mouse marrow cells in liquid culture, AChE-staining megakaryocytes; type: cell-based, Balb/C mice
Description: To assess the feasibility of mice as a convenient test species, several in vitro experiments, designed to measure the activity of the test compounds on the mouse receptor, have been done. First, marrow cells, harvested from the femurs of 8 to 9 week one Balb/C mice, were incubated for 7 days in liquid culture with either rhuTPO or various concentrations of the test peptides. At the end of the incubation period, the cultures were concentrated by Cytospin, stained for acetylcholinesterase (AChE, a diagnostic of mouse megakaryocytes), and counted by microscopic analysis. One (1) nM rhuTPO gave rise to the outgrowth of very large (>40 um) non-adherent cells that stain for AChE. These cells appear to be mature megakaryocytes. From an initial seeding of 10^6 total marrow cells/ml (in 50 ml cultures) an estimated 1 to 2×10^6 megakaryocytes developed. This response to TPO was designated as “maximal”. Control cultures containing no added growth factors produced very few AChE-positive cells. […] This finding was the first evidence that this peptide family is active on the murine receptor. In a second experiment, marrow cells were harvested and cultured in semi-solid medium (methylcellulose) containing either no factors, 1 nM rhuTPO, or 10 uM Peptide A. After 7 days in culture, colonies of large cell (presumed to be megakaryocytes) were counted and grouped into small colonies (3–5 cells) or large colonies (greater than 6 cells). TPO and the test peptides both produced substantially more colonies of both sized than did the negative control cultures.

[2] = test system: marrow cells; experiment: marrow cells in semi-solid medium (methylcellulose), colonies of large cells; type: cell-based, Balb/C mice; conditions: 1 nM TPO; 7 days in methylcellulose; replicate cultures
Description: To assess the feasibility of mice as a convenient test species, several in vitro experiments, designed to measure the activity of the test compounds on the mouse receptor, have been done. First, marrow cells, harvested from the femurs of 8 to 9 week one Balb/C mice, were incubated for 7 days in liquid culture with either rhuTPO or various concentrations of the test peptides. At the end of the incubation period, the cultures were concentrated by Cytospin, stained for acetylcholinesterase (AChE, a diagnostic of mouse megakaryocytes), and counted by microscopic analysis. One (1) nM rhuTPO gave rise to the outgrowth of very large (>40 um) non-adherent cells that stain for AChE. These cells appear to be mature megakaryocytes. From an initial seeding of 10^6 total marrow cells/ml (in 50 ml cultures) an estimated 1 to 2×10^6 megakaryocytes developed. This response to TPO was designated as “maximal”. Control cultures containing no added growth factors produced very few AChE-positive cells. […] In a second experiment, marrow cells were harvested and cultured in semi-solid medium (methylcellulose) containing either no factors, 1 nM rhuTPO, or 10 uM Peptide A. After 7 days in culture, colonies of large cell (presumed to be megakaryocytes) were counted and grouped into small colonies (3–5 cells) or large colonies (greater than 6 cells). […]

Substance | Response (AChE-staining megakaryocytes) ([1]; concentration tested 1000 nM (putative 1:4 complex), 7 days, maximal = compared to recombinant human TPO, 25–30% ACE staining cells) | megakaryocytes developed (estimated) ([1]; 1 nM rhuTPO, initial seeding 10^6 total marrow cells/ml in 50 ml cultures, 7 days) | Response (AChE-staining megakaryocytes) ([1]; concentration tested 1 nM, 7 days liquid culture) | large colonies, 6–12 large cells [2] | small colonies, 3–5 large cells [2]
S.A. alone: streptavidin alone [reference compound] | none |  |  |  | 
TPO (R & D): recombinant human TPO |  | 1 to 2×10^6 | “maximal” | 6 and 1 and 8 and 3 | 15 and 12 and 16 and 13
